# According to ChEMBL document CHEMBL1201861, “Genomics of Drug Sensitity in Cancer screening data, Wellcome Trust Sanger Institute”:
# Columns and labels:
# G-402 = assay: cells; format: functional, cell-based; conditions: Homo sapiens
# Description: SANGER: Inhibition of human G-402 cell growth in a cell viability assay.
# GMS-10 = assay: cells; format: functional, cell-based; conditions: Homo sapiens;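 note: growth inhibition of GMS-10 cells, read out as cell viability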
# Description: SANGER: Inhibition of human GMS-10 cell growth in a cell viability assay.
# CAL-33 = assay: cells; format: functional, cell-based; conditions: Homo sapiens;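 note: growth inhibition of CAL-33 cells, read out with a cell viability assay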
# Description: SANGER: Inhibition of human CAL-33 cell growth in a cell viability assay.
# CAL-85-1 = assay: cells; format: functional, cell-based; conditions: Homo sapiens;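 note: growth inhibition of human CAL-85-1 cells, read out with a cell viability assay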
# Description: SANGER: Inhibition of human CAL-85-1 cell growth in a cell viability assay.
# UO-31 = assay: cells; format: functional, cell-based; conditions: Homo sapiens
# Description: SANGER: Inhibition of human U031 cell growth in a cell viability assay.
# CAPAN-1 = assay: cells; format: functional, cell-based; conditions: Homo sapiens;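 note: growth suppression of CAPAN-1 cells, read out by a cell viability assay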
# Description: SANGER: Inhibition of human CAPAN-1 cell growth in a cell viability assay.
# NCI-H1573 = assay: cells; format: functional, cell-based; conditions: Homo sapiens;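 note: growth inhibition of NCI-H1573 cells, read out with a cell viability assay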
# Description: SANGER: Inhibition of human NCI-H1573 cell growth in a cell viability assay.
# A 172 = assay: cells; format: functional, cell-based; conditions: Homo sapiens;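 note: growth inhibition of A172 cells, measured with a cell viability readout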
# Description: SANGER: Inhibition of human A172 cell growth in a cell viability assay.
# GP5d = assay: cells; format: functional, cell-based; conditions: Homo sapiens;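 note: growth inhibition of human GP5d cells, read out with a cell viability assay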
# Description: SANGER: Inhibition of human GP5d cell growth in a cell viability assay.
# Panc1005 = assay: cells; format: functional, cell-based; conditions: Homo sapiens;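 note: growth inhibition of human PANC-10-05 cells, measured by a cell viability assay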
# Description: SANGER: Inhibition of human PANC-10-05 cell growth in a cell viability assay.
# IGROV-1 = assay: cells; format: functional, cell-based; conditions: Homo sapiens;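 note: reduction of IGROV-1 cell growth, read out with a viability assay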
# Description: SANGER: Inhibition of human IGROV-1 cell growth in a cell viability assay.
# HCC70 = assay: cells; format: functional, cell-based; conditions: Homo sapiens;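 note: cell viability assay measuring how strongly the compound suppresses proliferation of HCC70 cells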
# Description: SANGER: Inhibition of human HCC70 cell growth in a cell viability assay.
# Daoy = assay: cells; format: functional, cell-based; conditions: Homo sapiens;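 note: daoy cell growth inhibition, read out as cell viability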
# Description: SANGER: Inhibition of human Daoy cell growth in a cell viability assay.
# CHP-212 = assay: cells; format: functional, cell-based; conditions: Homo sapiens
# Description: SANGER: Inhibition of human CHP-212 cell growth in a cell viability assay.
# CAL-54 = assay: cells; format: functional, cell-based; conditions: Homo sapiens;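 note: growth inhibition of CAL-54 cells, read out by a viability measurement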
# Description: SANGER: Inhibition of human CAL-54 cell growth in a cell viability assay.
# TYK-nu = assay: cells; format: functional, cell-based; conditions: Homo sapiens;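 note: growth inhibition of human TYK-nu cells, read out by a cell viability assay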
# Description: SANGER: Inhibition of human TYK-nu cell growth in a cell viability assay.
# Detroit 562 = assay: cells; format: functional, cell-based; conditions: Homo sapiens;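 note: growth inhibition of human Detroit 562 cells, read out by a cell viability assay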
# Description: SANGER: Inhibition of human Detroit562 cell growth in a cell viability assay.
# SNU-449 = assay: cells; format: functional, cell-based; conditions: Homo sapiens
# Description: SANGER: Inhibition of human SNU-449 cell growth in a cell viability assay.
# ARH-77 = assay: cells; format: functional, cell-based; conditions: Homo sapiens;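 note: growth inhibition of ARH-77 cells, read out by a cell viability assay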
# Description: SANGER: Inhibition of human ARH-77 cell growth in a cell viability assay.
# BFTC-905 = assay: cells; format: functional, cell-based; conditions: Homo sapiens
# Description: SANGER: Inhibition of human BFTC-905 cell growth in a cell viability assay.
# KARPAS-422 = assay: cells; format: functional, cell-based; conditions: Homo sapiens
# Description: SANGER: Inhibition of human KARPAS-422 cell growth in a cell viability assay.
# SR = assay: cells; format: functional, cell-based; conditions: Homo sapiens
# Description: SANGER: Inhibition of human SR cell growth in a cell viability assay.
# HT-1376 = assay: cells; format: functional, cell-based; conditions: Homo sapiens
# Description: SANGER: Inhibition of human HT-1376 cell growth in a cell viability assay.
# HuP-T3 = assay: cells; format: functional, cell-based; conditions: Homo sapiens;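 note: HuP-T3 cell growth inhibition, read out with a cell viability assay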
# Description: SANGER: Inhibition of human HuP-T3 cell growth in a cell viability assay.
# SAS = assay: cells; format: functional, cell-based; conditions: Homo sapiens;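 note: growth inhibition of SAS cells, read out with a cell viability assay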
# Description: SANGER: Inhibition of human SAS cell growth in a cell viability assay.
# WSU-NHL = assay: cells; format: functional, cell-based; conditions: Homo sapiens;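 note: growth inhibition of human WSU-NHL cells, read out with a cell viability assay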
# Description: SANGER: Inhibition of human WSU-NHL cell growth in a cell viability assay.
# C3A = assay: cells; format: functional, cell-based; conditions: Homo sapiens;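 note: growth inhibition of C3A human cells, quantified with a cell viability readout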
# Description: SANGER: Inhibition of human C3A cell growth in a cell viability assay.
# BL-70 = assay: SANGER: Inhibition of human BL-70 cell growth in a cell viability assay.; format: functional, cell-based
# HTC-C3 = assay: cells; format: functional, cell-based; conditions: Homo sapiens;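 note: inhibition of cell growth, read out with a cell viability assay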
# Description: SANGER: Inhibition of human HTC-C3 cell growth in a cell viability assay.
# GDM-1 = assay: cells; format: functional, cell-based; conditions: Homo sapiens;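 note: cell viability readout used to measure growth inhibition of human GDM-1 cells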
# Description: SANGER: Inhibition of human GDM-1 cell growth in a cell viability assay.
# OPM-2 = assay: cells; format: functional, cell-based; conditions: Homo sapiens;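 note: growth of OPM-2 cells measured with a viability assay, IC50 for suppression of proliferation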
# Description: SANGER: Inhibition of human OPM-2 cell growth in a cell viability assay.
# NALM-6 = assay: cells; format: functional, cell-based; conditions: Homo sapiens;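 note: growth inhibition of NALM-6 cells, read out with a cell viability assay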
# Description: SANGER: Inhibition of human NALM-6 cell growth in a cell viability assay.
# NCCIT = assay: SANGER: Inhibition of human NCCIT cell growth in a cell viability assay.; format: functional, cell-based
# HEC-1 = assay: cells; format: functional, cell-based; conditions: Homo sapiens;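 note: growth inhibition of the cell line, read out with a cell viability assay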
# Description: SANGER: Inhibition of human HEC-1 cell growth in a cell viability assay.
# MeWo = assay: cells; format: functional, cell-based; conditions: Homo sapiens;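 note: growth inhibition of MeWo cells, determined by a cell viability readout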
# Description: SANGER: Inhibition of human Mewo cell growth in a cell viability assay.
# HT-29 = assay: cells; format: functional, cell-based; conditions: Homo sapiens;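 note: growth inhibition of human HT-29 cells, read out by a cell viability assay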
# Description: SANGER: Inhibition of human HT-29 cell growth in a cell viability assay.
# MHH-ES-1 = assay: cells; format: functional, cell-based; conditions: Homo sapiens
# Description: SANGER: Inhibition of human MHH-ES-1 cell growth in a cell viability assay.
# MEL-HO = assay: cells; format: functional, cell-based; conditions: Homo sapiens
# Description: SANGER: Inhibition of human MEL-HO cell growth in a cell viability assay.
# NCI-H2087 = assay: cells; format: functional, cell-based; conditions: Homo sapiens;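 note: growth inhibition determined with a cell viability readout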
# Description: SANGER: Inhibition of human NCI-H2087 cell growth in a cell viability assay.
# DK-MG = assay: cells; format: functional, cell-based; conditions: Homo sapiens;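 note: growth inhibition of DK-MG cells, read out with a cell viability assay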
# Description: SANGER: Inhibition of human DK-MG cell growth in a cell viability assay.
# NCI-H460 = assay: cells; format: functional, cell-based; conditions: Homo sapiens;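 note: cell viability assay scoring growth inhibition of human NCI-H460 cells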
# Description: SANGER: Inhibition of human NCI-H460 cell growth in a cell viability assay.
# HN = assay: cells; format: functional, cell-based; conditions: Homo sapiens
# Description: SANGER: Inhibition of human HN cell growth in a cell viability assay.
# BHT-101 = assay: cells; format: functional, cell-based; conditions: Homo sapiens
# Description: SANGER: Inhibition of human BHT-101 cell growth in a cell viability assay.
# VMRC-RCZ = assay: cells; format: functional, cell-based; conditions: Homo sapiens
# Description: SANGER: Inhibition of human VMRC-RCZ cell growth in a cell viability assay.
# FTC-133 = assay: cells; format: functional, cell-based; conditions: Homo sapiens
# DU-145 = assay: cells; format: functional, cell-based; conditions: Homo sapiens
# Description: SANGER: Inhibition of human DU-145 cell growth in a cell viability assay.
# HSC-3 = assay: cells; format: functional, cell-based; conditions: Homo sapiens
# Description: SANGER: Inhibition of human HSC-3 cell growth in a cell viability assay.
# U2OS = assay: cells; format: functional, cell-based, U-2-OS; conditions: Homo sapiens;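 note: growth inhibition of human U-2-OS cells, determined with a cell viability assay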
# Description: SANGER: Inhibition of human U-2-OS cell growth in a cell viability assay.
# MDA-MB-415 = assay: cells; format: functional, cell-based; conditions: Homo sapiens
# HCT-116 = assay: cells; format: functional, cell-based; conditions: Homo sapiens
# Description: SANGER: Inhibition of human HCT-116 cell growth in a cell viability assay.
# 23132-87 = assay: cells; format: functional, cell-based; conditions: Homo sapiens
# Description: SANGER: Inhibition of human 23132-87 cell growth in a cell viability assay.
# SK-MEL3 = assay: cells; format: functional, cell-based, SK-MEL-3; conditions: Homo sapiens;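 note: growth inhibition of human SK-MEL-3 cells, read out with a cell viability assay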
# Description: SANGER: Inhibition of human SK-MEL-3 cell growth in a cell viability assay.
# T-24 = assay: cells; format: functional, cell-based; conditions: Homo sapiens;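 note: growth inhibition of T-24 cells, read out with a cell viability assay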
# Description: SANGER: Inhibition of human T-24 cell growth in a cell viability assay.
# RPMI-7951 = assay: cells; format: functional, cell-based; conditions: Homo sapiens
# Description: SANGER: Inhibition of human RPMI-7951 cell growth in a cell viability assay.
# SUP-T1 = assay: cells; format: functional, cell-based; conditions: Homo sapiens;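 note: growth inhibition of human SUP-T1 cells, read out as cell viability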
# Description: SANGER: Inhibition of human SUP-T1 cell growth in a cell viability assay.
# CAMA-1 = assay: cells; format: functional, cell-based; conditions: Homo sapiens;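 note: growth inhibition of CAMA-1 cells, read out with a cell viability assay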
# Description: SANGER: Inhibition of human CAMA-1 cell growth in a cell viability assay.
# HuCCT-1 = assay: cells; format: functional, cell-based, HuCCT1; conditions: Homo sapiens;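 note: growth inhibition of HuCCT-1 cells, read out by a cell viability assay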
# Description: SANGER: Inhibition of human HuCCT1 cell growth in a cell viability assay.
# NCI-H441 = assay: cells; format: functional, cell-based; conditions: Homo sapiens;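 note: growth inhibition of NCI-H441 cells, read out with a cell viability assay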
# Description: SANGER: Inhibition of human NCI-H441 cell growth in a cell viability assay.
# KP-N-YN = assay: cells; format: functional, cell-based; conditions: Homo sapiens;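 note: growth inhibition of KP-N-YN cells, read out with a cell viability assay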
# Description: SANGER: Inhibition of human KP-N-YN cell growth in a cell viability assay.
# SCC-9 = assay: cells; format: functional, cell-based; conditions: Homo sapiens;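 note: Read-out is a cell viability assay, with values giving inhibition of cell growth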
# Description: SANGER: Inhibition of human SCC-9 cell growth in a cell viability assay.
# 639-V = assay: cells; format: functional, cell-based; conditions: Homo sapiens;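 note: growth inhibition of 639-V cells, read out with a cell viability assay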
# Description: SANGER: Inhibition of human 639-V cell growth in a cell viability assay.
# SW780 = assay: cells; format: functional, cell-based; conditions: Homo sapiens;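 note: growth inhibition of the cells, read out with a cell viability assay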
# Description: SANGER: Inhibition of human SW780 cell growth in a cell viability assay.
# COLO-678 = assay: cells; format: functional, cell-based; conditions: Homo sapiens
# Description: SANGER: Inhibition of human COLO-678 cell growth in a cell viability assay.
# D-336MG = assay: cells; format: functional, cell-based; conditions: Homo sapiens
# Description: SANGER: Inhibition of human D-336MG cell growth in a cell viability assay.
smiles,measurement,setting,value
C/C=C(/C)C(=O)O[C@H]1C(C)=C2[C@H]([C@@H]1OC(=O)CCCCCCC)[C@@](C)(OC(C)=O)C[C@H](OC(=O)CCC)[C@@]1(O)[C@H]2OC(=O)[C@@]1(C)O [THAPSIGARGIN],IC50,G-402,0.00395 µM
same,IC50,GMS-10,> 0.512 µM
same,IC50,CAL-33,0.0307 µM
same,IC50,CAL-85-1,0.00603 µM
same,IC50,UO-31,0.0577 µM
same,IC50,CAPAN-1,0.0135 µM
same,IC50,NCI-H1573,0.00162 µM
same,IC50,A 172,< 0.002 µM
same,IC50,GP5d,0.0417 µM
same,IC50,Panc1005,0.0261 µM
same,IC50,IGROV-1,< 0.002 µM
same,IC50,HCC70,0.0226 µM
same,IC50,Daoy,0.00534 µM
same,IC50,CHP-212,0.003 µM
same,IC50,CAL-54,> 0.512 µM
same,IC50,TYK-nu,< 0.002 µM
same,IC50,Detroit 562,0.00252 µM
same,IC50,SNU-449,0.00418 µM
same,IC50,ARH-77,0.0751 µM
same,IC50,BFTC-905,0.000662 µM
same,IC50,KARPAS-422,0.0239 µM
same,IC50,SR,> 0.512 µM
same,IC50,HT-1376,0.00275 µM
same,IC50,HuP-T3,0.0181 µM
same,IC50,SAS,0.106 µM
same,IC50,WSU-NHL,0.00554 µM
same,IC50,C3A,0.0303 µM
same,IC50,BL-70,0.00882 µM
same,IC50,HTC-C3,0.0217 µM
same,IC50,GDM-1,0.23 µM
same,IC50,OPM-2,< 0.002 µM
same,IC50,NALM-6,< 0.002 µM
same,IC50,NCCIT,< 0.002 µM
same,IC50,HEC-1,0.0404 µM
same,IC50,MeWo,> 0.512 µM
same,IC50,HT-29,0.0054 µM
same,IC50,MHH-ES-1,0.00418 µM
same,IC50,MEL-HO,0.0019 µM
same,IC50,NCI-H2087,0.000546 µM
same,IC50,DK-MG,0.0472 µM
same,IC50,NCI-H460,0.00837 µM
same,IC50,HN,> 0.512 µM
same,IC50,BHT-101,0.0881 µM
same,IC50,VMRC-RCZ,0.0112 µM
same,IC50,FTC-133,> 0.512 µM
same,IC50,DU-145,0.00863 µM
same,IC50,HSC-3,0.0113 µM
same,IC50,U2OS,0.0447 µM
same,IC50,MDA-MB-415,> 0.512 µM
same,IC50,HCT-116,0.000943 µM
same,IC50,23132-87,0.0314 µM
same,IC50,SK-MEL3,0.00651 µM
same,IC50,T-24,0.0123 µM
same,IC50,RPMI-7951,0.00398 µM
same,IC50,SUP-T1,0.0547 µM
same,IC50,CAMA-1,0.0105 µM
same,IC50,HuCCT-1,0.00433 µM
same,IC50,NCI-H441,0.0126 µM
same,IC50,KP-N-YN,0.027 µM
same,IC50,SCC-9,0.447 µM
same,IC50,639-V,0.000512 µM
same,IC50,SW780,> 0.512 µM
same,IC50,COLO-678,> 0.512 µM
O=c1cc(N2CCOCC2)oc2c(-c3cccc4c3sc3ccccc34)cccc12,IC50,G-402,> 2 µM
same,IC50,GMS-10,> 2 µM
same,IC50,CAL-33,> 2 µM
same,IC50,CAL-85-1,> 2 µM
same,IC50,UO-31,> 2 µM
same,IC50,CAPAN-1,> 2 µM
same,IC50,NCI-H1573,> 2 µM
same,IC50,A 172,0.153 µM
same,IC50,GP5d,> 2 µM
same,IC50,Panc1005,> 2 µM
same,IC50,IGROV-1,> 2 µM
same,IC50,HCC70,> 2 µM
same,IC50,Daoy,> 2 µM
same,IC50,CHP-212,> 2 µM
same,IC50,CAL-54,> 2 µM
same,IC50,TYK-nu,> 2 µM
same,IC50,Detroit 562,> 2 µM
same,IC50,SNU-449,> 2 µM
same,IC50,BFTC-905,> 2 µM
same,IC50,HT-1376,> 2 µM
same,IC50,HuP-T3,> 2 µM
same,IC50,SAS,> 2 µM
same,IC50,C3A,> 2 µM
same,IC50,HTC-C3,> 2 µM
same,IC50,D-336MG,> 2 µM
same,IC50,HEC-1,> 2 µM
same,IC50,MeWo,> 2 µM
same,IC50,HT-29,> 2 µM
same,IC50,MHH-ES-1,> 2 µM
same,IC50,MEL-HO,> 2 µM
same,IC50,NCI-H2087,> 2 µM
same,IC50,DK-MG,> 2 µM
same,IC50,NCI-H460,> 2 µM
same,IC50,HN,> 2 µM
same,IC50,BHT-101,> 2 µM
same,IC50,VMRC-RCZ,> 2 µM
same,IC50,FTC-133,> 2 µM
same,IC50,DU-145,> 2 µM
same,IC50,HSC-3,> 2 µM
same,IC50,U2OS,> 2 µM
same,IC50,MDA-MB-415,> 2 µM
same,IC50,HCT-116,> 2 µM
same,IC50,23132-87,> 2 µM
same,IC50,SK-MEL3,> 2 µM
same,IC50,T-24,> 2 µM
same,IC50,RPMI-7951,> 2 µM
same,IC50,CAMA-1,> 2 µM
same,IC50,HuCCT-1,> 2 µM
same,IC50,NCI-H441,> 2 µM
same,IC50,KP-N-YN,> 2 µM
same,IC50,SCC-9,> 2 µM
same,IC50,639-V,1.44 µM
same,IC50,SW780,> 2 µM
same,IC50,COLO-678,> 2 µM
